Values of other authors as cited in patent publication US20060019984A1, “Treatment of diseases with alpha-7nACh receptor full agonists” (Pfizer Inc, priority 2003, published 2006).

Assays:
5HT3R = target: T1, 5HT3R (Homo sapiens, UniProt P46098); settings: general statement, no method or value given
T1 sequence (P46098 24-478): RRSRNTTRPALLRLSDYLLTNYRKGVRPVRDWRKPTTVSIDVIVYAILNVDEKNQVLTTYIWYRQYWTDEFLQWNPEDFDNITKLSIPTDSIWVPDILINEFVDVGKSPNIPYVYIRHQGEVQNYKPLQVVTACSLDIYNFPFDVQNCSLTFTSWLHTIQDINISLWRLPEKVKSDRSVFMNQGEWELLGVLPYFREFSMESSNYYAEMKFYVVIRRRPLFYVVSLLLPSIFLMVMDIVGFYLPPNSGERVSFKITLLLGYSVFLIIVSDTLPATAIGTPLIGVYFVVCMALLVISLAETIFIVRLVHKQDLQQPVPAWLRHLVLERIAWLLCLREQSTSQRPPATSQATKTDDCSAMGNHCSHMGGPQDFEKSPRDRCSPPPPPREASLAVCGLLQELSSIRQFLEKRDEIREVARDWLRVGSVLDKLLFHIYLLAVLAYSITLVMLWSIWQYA

α7 nAChR = α7 nAChR (Homo sapiens, UniProt P36544); settings: general statement, no method or value given
Chain of α7 nAChR (P36544 23-502): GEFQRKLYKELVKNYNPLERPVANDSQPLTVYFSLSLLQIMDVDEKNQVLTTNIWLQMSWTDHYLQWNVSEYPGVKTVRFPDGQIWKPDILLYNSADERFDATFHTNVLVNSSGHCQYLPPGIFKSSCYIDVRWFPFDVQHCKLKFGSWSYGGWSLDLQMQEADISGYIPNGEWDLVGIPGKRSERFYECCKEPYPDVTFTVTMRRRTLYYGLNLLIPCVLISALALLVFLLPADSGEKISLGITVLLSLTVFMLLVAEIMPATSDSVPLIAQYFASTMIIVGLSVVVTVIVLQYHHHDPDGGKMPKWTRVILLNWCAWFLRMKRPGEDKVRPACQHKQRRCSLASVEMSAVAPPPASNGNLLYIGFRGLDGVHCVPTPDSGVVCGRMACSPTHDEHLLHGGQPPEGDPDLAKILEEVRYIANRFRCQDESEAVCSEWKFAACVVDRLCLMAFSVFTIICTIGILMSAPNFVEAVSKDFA

activity at the 5HT3R (5HT3R) | activity at the α7 nAChR (α7 nAChR) | SMILES
little activity |  | COc1ccc(/C=C2\CCCN=C2c2cccnc2)c(OC)c1 [GTS-21]
 | little activity | Cc1nccn1CC1CCc2c(c3ccccc3n2C)C1=O (centres unmarked) [Ondansetron]
